Assay results: PubChem BioAssay (NCI)
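96-well plates; 48 h exposure; 5 concentrations. Endpoints by linear interpolation between flanking doses. Not reached: highest tested concentration assigned. The concentration for full growth arrest is given as TGI.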

Tests used:
Assay in all cases: DTP human tumour cell line panel, 48 h
HT29 colon = test system: HT29 colon
NCI/ADR-RES ovarian = test system: NCI/ADR-RES ovarian
OVCAR-8 ovarian = test system: OVCAR-8 ovarian
SK-MEL-28 melanoma = test system: SK-MEL-28 melanoma
MDA-MB-231 breast = test system: MDA-MB-231 breast
KM12 colon = test system: KM12 colon
SN12C renal = test system: SN12C renal
T-47D breast = test system: T-47D breast
SK-MEL-5 melanoma = test system: SK-MEL-5 melanoma
PC-3 prostate = test system: PC-3 prostate
HCT-116 colon = test system: HCT-116 colon
HOP-92 NSCLC = test system: HOP-92 NSCLC
MOLT-4 leukemia = test system: MOLT-4 leukemia
SF-268 CNS = test system: SF-268 CNS
OVCAR-3 ovarian = test system: OVCAR-3 ovarian
SW-620 colon = test system: SW-620 colon
786-0 renal = test system: 786-0 renal
SK-MEL-2 melanoma = test system: SK-MEL-2 melanoma
TK-10 renal = test system: TK-10 renal
IGROV1 ovarian = test system: IGROV1 ovarian
SNB-75 CNS = test system: SNB-75 CNS
UACC-257 melanoma = test system: UACC-257 melanoma
SF-539 CNS = test system: SF-539 CNS
SF-295 CNS = test system: SF-295 CNS
HL-60(TB) leukemia = test system: HL-60(TB) leukemia
A498 renal = test system: A498 renal
MDA-N = test system: MDA-N
CAKI-1 renal = test system: CAKI-1 renal
RPMI-8226 leukemia = test system: RPMI-8226 leukemia
NCI-H522 lung = test system: NCI-H522 lung
MALME-3M melanoma = test system: MALME-3M melanoma
A549 NSCLC = test system: A549 NSCLC
COLO 205 colon = test system: COLO 205 colon
BT-549 breast = test system: BT-549 breast
HS 578T breast = test system: HS 578T breast
ACHN renal = test system: ACHN renal
UO-31 renal = test system: UO-31 renal
MCF7 breast = test system: MCF7 breast
CCRF-CEM leukemia = test system: CCRF-CEM leukemia
HCC-2998 colon = test system: HCC-2998 colon
UACC-62 melanoma = test system: UACC-62 melanoma
HCT-15 colon = test system: HCT-15 colon
DU-145 prostate = test system: DU-145 prostate
OVCAR-4 ovarian = test system: OVCAR-4 ovarian
SNB-19 CNS = test system: SNB-19 CNS
OVCAR-5 ovarian = test system: OVCAR-5 ovarian
EKVX NSCLC = test system: EKVX NSCLC
MDA-MB-435 = test system: MDA-MB-435
U251 CNS = test system: U251 CNS
NCI-H23 lung = test system: NCI-H23 lung
NCI-H460 lung = test system: NCI-H460 lung
SK-OV-3 ovarian = test system: SK-OV-3 ovarian
NCI-H226 lung = test system: NCI-H226 lung
LOX IMVI melanoma = test system: LOX IMVI melanoma
M14 melanoma = test system: M14 melanoma
RXF 393 renal = test system: RXF 393 renal
K-562 leukemia = test system: K-562 leukemia
HOP-62 NSCLC = test system: HOP-62 NSCLC

## CCC12CCCN3CCc4c(n(c5ccccc45)C(O)(C(=O)OC)C1)C32 (centres undefined)
HT29 colon
  TGI: > 100 µM
NCI/ADR-RES ovarian
  TGI: > 100 µM
OVCAR-8 ovarian
  TGI: > 100 µM
SK-MEL-28 melanoma
  TGI: > 100 µM
MDA-MB-231 breast
  TGI: > 100 µM
KM12 colon
  TGI: > 100 µM
SN12C renal
  TGI: > 100 µM
T-47D breast
  TGI: > 100 µM
SK-MEL-5 melanoma
  TGI: > 100 µM
PC-3 prostate
  TGI: > 100 µM
HCT-116 colon
  TGI: > 100 µM
HOP-92 NSCLC
  TGI: > 100 µM
MOLT-4 leukemia
  TGI: > 100 µM
SF-268 CNS
  TGI: > 100 µM
OVCAR-3 ovarian
  TGI: > 100 µM
SW-620 colon
  TGI: > 100 µM
786-0 renal
  TGI: > 100 µM
SK-MEL-2 melanoma
  TGI: > 100 µM
TK-10 renal
  TGI: > 100 µM
IGROV1 ovarian
  TGI: > 100 µM
SNB-75 CNS
  TGI: > 100 µM
UACC-257 melanoma
  TGI: > 100 µM
SF-539 CNS
  TGI: > 100 µM
SF-295 CNS
  TGI: > 100 µM
HL-60(TB) leukemia
  TGI: > 100 µM
A498 renal
  TGI: > 100 µM
MDA-N
  TGI: > 100 µM
CAKI-1 renal
  TGI: > 100 µM
RPMI-8226 leukemia
  TGI: > 100 µM
NCI-H522 lung
  TGI: > 100 µM
MALME-3M melanoma
  TGI: > 100 µM
A549 NSCLC
  TGI: > 100 µM
COLO 205 colon
  TGI: > 100 µM
BT-549 breast
  TGI: > 100 µM
HS 578T breast
  TGI: > 100 µM
ACHN renal
  TGI: > 100 µM
UO-31 renal
  TGI: > 100 µM
MCF7 breast
  TGI: > 100 µM
CCRF-CEM leukemia
  TGI: > 100 µM
HCC-2998 colon
  TGI: > 100 µM
UACC-62 melanoma
  TGI: > 100 µM
HCT-15 colon
  TGI: > 100 µM
DU-145 prostate
  TGI: > 100 µM
OVCAR-4 ovarian
  TGI: > 100 µM
SNB-19 CNS
  TGI: > 100 µM
OVCAR-5 ovarian
  TGI: > 100 µM
EKVX NSCLC
  TGI: > 100 µM
MDA-MB-435
  TGI: > 100 µM
U251 CNS
  TGI: > 100 µM
NCI-H23 lung
  TGI: > 100 µM
NCI-H460 lung
  TGI: > 100 µM
SK-OV-3 ovarian
  TGI: > 100 µM
NCI-H226 lung
  TGI: > 100 µM
LOX IMVI melanoma
  TGI: > 100 µM
M14 melanoma
  TGI: > 100 µM

## O=C1NC(N/N=C/c2c[nH]c3ccccc23)=N/C1=C\c1cccs1
HT29 colon
  TGI: > 100 µM
NCI/ADR-RES ovarian
  TGI: > 100 µM
OVCAR-8 ovarian
  TGI: > 100 µM
SK-MEL-28 melanoma
  TGI: > 100 µM
MDA-MB-231 breast
  TGI: > 100 µM
KM12 colon
  TGI: > 100 µM
SN12C renal
  TGI: > 100 µM
T-47D breast
  TGI: > 100 µM
SK-MEL-5 melanoma
  TGI: > 100 µM
PC-3 prostate
  TGI: > 100 µM
RXF 393 renal
  TGI: > 100 µM
HCT-116 colon
  TGI: > 100 µM
K-562 leukemia
  TGI: > 100 µM
HOP-92 NSCLC
  TGI: > 100 µM
MOLT-4 leukemia
  TGI: > 100 µM
SF-268 CNS
  TGI: > 100 µM
OVCAR-3 ovarian
  TGI: 77.3 µM
SW-620 colon
  TGI: > 100 µM
786-0 renal
  TGI: > 100 µM
SK-MEL-2 melanoma
  TGI: > 100 µM
TK-10 renal
  TGI: > 100 µM
IGROV1 ovarian
  TGI: > 100 µM
SNB-75 CNS
  TGI: > 100 µM
UACC-257 melanoma
  TGI: > 100 µM
SF-539 CNS
  TGI: > 100 µM
SF-295 CNS
  TGI: > 100 µM
HL-60(TB) leukemia
  TGI: 60.6 µM
A498 renal
  TGI: 71.9 µM
MDA-N
  TGI: > 100 µM
CAKI-1 renal
  TGI: > 100 µM
RPMI-8226 leukemia
  TGI: > 100 µM
NCI-H522 lung
  TGI: > 100 µM
MALME-3M melanoma
  TGI: > 100 µM
A549 NSCLC
  TGI: > 100 µM
COLO 205 colon
  TGI: > 100 µM
BT-549 breast
  TGI: > 100 µM
HS 578T breast
  TGI: > 100 µM
ACHN renal
  TGI: > 100 µM
UO-31 renal
  TGI: > 100 µM
MCF7 breast
  TGI: > 100 µM
CCRF-CEM leukemia
  TGI: > 100 µM
UACC-62 melanoma
  TGI: > 100 µM
HCT-15 colon
  TGI: > 100 µM
DU-145 prostate
  TGI: > 100 µM
HOP-62 NSCLC
  TGI: > 100 µM
OVCAR-4 ovarian
  TGI: > 100 µM
SNB-19 CNS
  TGI: > 100 µM
OVCAR-5 ovarian
  TGI: > 100 µM
EKVX NSCLC
  TGI: > 100 µM
MDA-MB-435
  TGI: > 100 µM
U251 CNS
  TGI: > 100 µM
NCI-H23 lung
  TGI: > 100 µM
NCI-H460 lung
  TGI: > 100 µM
SK-OV-3 ovarian
  TGI: > 100 µM
NCI-H226 lung
  TGI: > 100 µM
LOX IMVI melanoma
  TGI: > 100 µM
M14 melanoma
  TGI: > 100 µM

## CC1(C)SC2C(NC(=O)C(C(=O)O)c3ccccc3)C(=O)N2C1C(=O)O (centres undefined)
HT29 colon
  TGI: > 100 µM
NCI/ADR-RES ovarian
  TGI: > 100 µM
OVCAR-8 ovarian
  TGI: > 100 µM
SK-MEL-28 melanoma
  TGI: > 100 µM
MDA-MB-231 breast
  TGI: > 100 µM
KM12 colon
  TGI: > 100 µM
SN12C renal
  TGI: > 100 µM
T-47D breast
  TGI: > 100 µM
SK-MEL-5 melanoma
  TGI: > 100 µM
PC-3 prostate
  TGI: > 100 µM
RXF 393 renal
  TGI: > 100 µM
HCT-116 colon
  TGI: > 100 µM
K-562 leukemia
  TGI: > 100 µM
MOLT-4 leukemia
  TGI: > 100 µM
SF-268 CNS
  TGI: > 100 µM
OVCAR-3 ovarian
  TGI: > 100 µM
SW-620 colon
  TGI: > 100 µM
786-0 renal
  TGI: > 100 µM
SK-MEL-2 melanoma
  TGI: > 100 µM
TK-10 renal
  TGI: > 100 µM
IGROV1 ovarian
  TGI: > 100 µM
SNB-75 CNS
  TGI: > 100 µM
UACC-257 melanoma
  TGI: > 100 µM
SF-539 CNS
  TGI: > 100 µM
SF-295 CNS
  TGI: > 100 µM
HL-60(TB) leukemia
  TGI: > 100 µM
A498 renal
  TGI: > 100 µM
MDA-N
  TGI: > 100 µM
CAKI-1 renal
  TGI: > 100 µM
RPMI-8226 leukemia
  TGI: > 100 µM
MALME-3M melanoma
  TGI: > 100 µM
COLO 205 colon
  TGI: > 100 µM
BT-549 breast
  TGI: > 100 µM
HS 578T breast
  TGI: > 100 µM
ACHN renal
  TGI: > 100 µM
UO-31 renal
  TGI: > 100 µM
MCF7 breast
  TGI: > 100 µM
CCRF-CEM leukemia
  TGI: > 100 µM
UACC-62 melanoma
  TGI: > 100 µM
HCT-15 colon
  TGI: > 100 µM
DU-145 prostate
  TGI: > 100 µM
HOP-62 NSCLC
  TGI: > 100 µM
SNB-19 CNS
  TGI: > 100 µM
OVCAR-5 ovarian
  TGI: > 100 µM
EKVX NSCLC
  TGI: > 100 µM
MDA-MB-435
  TGI: > 100 µM
U251 CNS
  TGI: > 100 µM
NCI-H23 lung
  TGI: > 100 µM
SK-OV-3 ovarian
  TGI: > 100 µM
NCI-H226 lung
  TGI: > 100 µM
LOX IMVI melanoma
  TGI: > 100 µM
M14 melanoma
  TGI: > 100 µM
